According to PubChem BioAssay (NCI):
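Assay format: 96-well plates, 48-hour exposure. The concentration for 50% growth inhibition is given as GI50. TGI: concentration producing complete growth inhibition.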

Columns and labels:
Assay in all cases: DTP human tumour cell line panel, 48 h
SK-MEL-28 melanoma = test system: SK-MEL-28 melanoma
TK-10 renal = test system: TK-10 renal
SW-620 colon = test system: SW-620 colon
A498 renal = test system: A498 renal
786-0 renal = test system: 786-0 renal
OVCAR-3 ovarian = test system: OVCAR-3 ovarian
SK-OV-3 ovarian = test system: SK-OV-3 ovarian
OVCAR-5 ovarian = test system: OVCAR-5 ovarian
U251 CNS = test system: U251 CNS
HCT-116 colon = test system: HCT-116 colon
PC-3 prostate = test system: PC-3 prostate
SNB-75 CNS = test system: SNB-75 CNS
MOLT-4 leukemia = test system: MOLT-4 leukemia
COLO 205 colon = test system: COLO 205 colon
SK-MEL-5 melanoma = test system: SK-MEL-5 melanoma
SF-539 CNS = test system: SF-539 CNS
EKVX NSCLC = test system: EKVX NSCLC
T-47D breast = test system: T-47D breast
M14 melanoma = test system: M14 melanoma
CCRF-CEM leukemia = test system: CCRF-CEM leukemia
NCI-H23 lung = test system: NCI-H23 lung
HCC-2998 colon = test system: HCC-2998 colon
HOP-62 NSCLC = test system: HOP-62 NSCLC
RPMI-8226 leukemia = test system: RPMI-8226 leukemia
K-562 leukemia = test system: K-562 leukemia
LOX IMVI melanoma = test system: LOX IMVI melanoma
SF-268 CNS = test system: SF-268 CNS
NCI/ADR-RES ovarian = test system: NCI/ADR-RES ovarian
HL-60(TB) leukemia = test system: HL-60(TB) leukemia
SN12C renal = test system: SN12C renal
ACHN renal = test system: ACHN renal
SF-295 CNS = test system: SF-295 CNS
SNB-19 CNS = test system: SNB-19 CNS
MCF7 breast = test system: MCF7 breast
HCT-15 colon = test system: HCT-15 colon
DU-145 prostate = test system: DU-145 prostate
HS 578T breast = test system: HS 578T breast
NCI-H522 lung = test system: NCI-H522 lung
KM12 colon = test system: KM12 colon
MDA-MB-231 breast = test system: MDA-MB-231 breast
MDA-MB-435 = test system: MDA-MB-435
CAKI-1 renal = test system: CAKI-1 renal
UACC-62 melanoma = test system: UACC-62 melanoma
UACC-257 melanoma = test system: UACC-257 melanoma
SR leukemia = test system: SR leukemia
HOP-92 NSCLC = test system: HOP-92 NSCLC
RXF 393 renal = test system: RXF 393 renal
NCI-H226 lung = test system: NCI-H226 lung
A549 NSCLC = test system: A549 NSCLC
OVCAR-4 ovarian = test system: OVCAR-4 ovarian
NCI-H460 lung = test system: NCI-H460 lung
MALME-3M melanoma = test system: MALME-3M melanoma
OVCAR-8 ovarian = test system: OVCAR-8 ovarian
UO-31 renal = test system: UO-31 renal
IGROV1 ovarian = test system: IGROV1 ovarian
SK-MEL-2 melanoma = test system: SK-MEL-2 melanoma
HT29 colon = test system: HT29 colon
BT-549 breast = test system: BT-549 breast

COc1cc(NC(=O)NCc2ccco2)ccc1-c1ccc(NC(=O)NCc2ccco2)cc1OC
GI50 (SK-MEL-28 melanoma): 1.5 µM | TGI (SK-MEL-28 melanoma): 5.33 µM | GI50 (TK-10 renal): 1.01 µM | TGI (TK-10 renal): 9.87 µM | GI50 (SW-620 colon): 6.15 µM | TGI (SW-620 colon): > 100 µM | GI50 (A498 renal): 1.72 µM | TGI (A498 renal): 8.25 µM | GI50 (786-0 renal): 2.35 µM | TGI (786-0 renal): 11.4 µM | GI50 (OVCAR-3 ovarian): 2.59 µM | TGI (OVCAR-3 ovarian): 16.2 µM | GI50 (SK-OV-3 ovarian): 2.49 µM | TGI (SK-OV-3 ovarian): 19.7 µM | GI50 (OVCAR-5 ovarian): 19.5 µM | TGI (OVCAR-5 ovarian): > 100 µM | GI50 (U251 CNS): 0.957 µM | TGI (U251 CNS): 4.3 µM | GI50 (HCT-116 colon): 0.696 µM | TGI (HCT-116 colon): > 100 µM | GI50 (PC-3 prostate): 3.34 µM | TGI (PC-3 prostate): 39.9 µM | GI50 (SNB-75 CNS): 1.02 µM | TGI (SNB-75 CNS): 4 µM | GI50 (MOLT-4 leukemia): 20.3 µM | TGI (MOLT-4 leukemia): > 100 µM | GI50 (COLO 205 colon): 3.1 µM | TGI (COLO 205 colon): > 100 µM | GI50 (SK-MEL-5 melanoma): 0.93 µM | TGI (SK-MEL-5 melanoma): 21.4 µM | GI50 (SF-539 CNS): 0.663 µM | TGI (SF-539 CNS): 2.62 µM | GI50 (EKVX NSCLC): 3.26 µM | TGI (EKVX NSCLC): 31 µM | GI50 (T-47D breast): 2.38 µM | TGI (T-47D breast): > 100 µM | GI50 (M14 melanoma): 3.2 µM | TGI (M14 melanoma): 38.2 µM | GI50 (CCRF-CEM leukemia): 16.8 µM | TGI (CCRF-CEM leukemia): > 100 µM | GI50 (NCI-H23 lung): 2.99 µM | TGI (NCI-H23 lung): 11 µM | GI50 (HCC-2998 colon): 7.97 µM | TGI (HCC-2998 colon): > 100 µM | GI50 (HOP-62 NSCLC): 1.94 µM | TGI (HOP-62 NSCLC): 11.3 µM | GI50 (RPMI-8226 leukemia): > 100 µM | TGI (RPMI-8226 leukemia): > 100 µM | GI50 (K-562 leukemia): 0.773 µM | TGI (K-562 leukemia): > 100 µM | GI50 (LOX IMVI melanoma): 1.28 µM | TGI (LOX IMVI melanoma): > 100 µM | GI50 (SF-268 CNS): 0.98 µM | TGI (SF-268 CNS): 13.6 µM | GI50 (NCI/ADR-RES ovarian): > 100 µM | TGI (NCI/ADR-RES ovarian): > 100 µM | GI50 (HL-60(TB) leukemia): > 100 µM | TGI (HL-60(TB) leukemia): > 100 µM | GI50 (SN12C renal): 3.17 µM | TGI (SN12C renal): 23.3 µM | GI50 (ACHN renal): 2.84 µM | TGI (ACHN renal): > 100 µM | GI50 (SF-295 CNS): 1.25 µM | TGI (SF-295 CNS): 14.4 µM | GI50 (SNB-19 CNS): 3.22 µM | TGI (SNB-19 CNS): 17.2 µM | GI50 (MCF7 breast): 1.49 µM | TGI (MCF7 breast): 4.68 µM | GI50 (HCT-15 colon): 0.398 µM | TGI (HCT-15 colon): > 100 µM | GI50 (DU-145 prostate): 3.01 µM | TGI (DU-145 prostate): > 100 µM | GI50 (HS 578T breast): 1.51 µM | TGI (HS 578T breast): 6.86 µM | GI50 (NCI-H522 lung): 2 µM | TGI (NCI-H522 lung): 5.33 µM | GI50 (KM12 colon): 1.82 µM | TGI (KM12 colon): > 100 µM | GI50 (MDA-MB-231 breast): 1.41 µM | TGI (MDA-MB-231 breast): 3.98 µM | GI50 (MDA-MB-435): 4.14 µM | TGI (MDA-MB-435): > 100 µM | GI50 (CAKI-1 renal): 10.1 µM | TGI (CAKI-1 renal): > 100 µM | GI50 (UACC-62 melanoma): 1.25 µM | TGI (UACC-62 melanoma): 5.18 µM | GI50 (UACC-257 melanoma): 2.72 µM | TGI (UACC-257 melanoma): > 100 µM | GI50 (SR leukemia): 0.458 µM | TGI (SR leukemia): > 100 µM | GI50 (HOP-92 NSCLC): 2.67 µM | TGI (HOP-92 NSCLC): 7.76 µM | GI50 (RXF 393 renal): 1.88 µM | TGI (RXF 393 renal): 6.22 µM | GI50 (NCI-H226 lung): 1.46 µM | TGI (NCI-H226 lung): 7.92 µM | GI50 (A549 NSCLC): 1.74 µM | TGI (A549 NSCLC): 28.3 µM | GI50 (OVCAR-4 ovarian): 1.47 µM | TGI (OVCAR-4 ovarian): 3.71 µM | GI50 (NCI-H460 lung): 0.526 µM | TGI (NCI-H460 lung): > 100 µM | GI50 (MALME-3M melanoma): 1.65 µM | TGI (MALME-3M melanoma): 5.56 µM | GI50 (OVCAR-8 ovarian): 1.88 µM | TGI (OVCAR-8 ovarian): 11.7 µM | GI50 (UO-31 renal): 4.4 µM | TGI (UO-31 renal): 55.8 µM

CC12CCC(C(=Nc3cc(C(F)(F)F)cc(C(F)(F)F)c3)C1=O)C2(C)C (stereo unspecified)
TGI (SK-MEL-28 melanoma): > 100 µM | TGI (TK-10 renal): > 100 µM | TGI (SW-620 colon): > 100 µM | TGI (A498 renal): 62.5 µM | TGI (786-0 renal): > 100 µM | TGI (OVCAR-3 ovarian): > 100 µM | TGI (SK-OV-3 ovarian): > 100 µM | TGI (OVCAR-5 ovarian): > 100 µM | TGI (U251 CNS): > 100 µM | TGI (HCT-116 colon): 99 µM | TGI (PC-3 prostate): > 100 µM | TGI (MOLT-4 leukemia): 44.2 µM | TGI (COLO 205 colon): 34.1 µM | TGI (IGROV1 ovarian): 76.1 µM | TGI (SK-MEL-5 melanoma): > 100 µM | TGI (SF-539 CNS): 44.9 µM | TGI (EKVX NSCLC): > 100 µM | TGI (T-47D breast): 74.3 µM | TGI (M14 melanoma): > 100 µM | TGI (CCRF-CEM leukemia): > 100 µM | TGI (NCI-H23 lung): > 100 µM | TGI (HCC-2998 colon): 73.3 µM | TGI (HOP-62 NSCLC): > 100 µM | TGI (RPMI-8226 leukemia): 44.7 µM | TGI (K-562 leukemia): > 100 µM | TGI (LOX IMVI melanoma): 29.9 µM | TGI (SF-268 CNS): 84.5 µM | TGI (NCI/ADR-RES ovarian): > 100 µM | TGI (SK-MEL-2 melanoma): 51.2 µM | TGI (HL-60(TB) leukemia): 23.8 µM | TGI (ACHN renal): > 100 µM | TGI (SF-295 CNS): > 100 µM | TGI (SNB-19 CNS): > 100 µM | TGI (MCF7 breast): > 100 µM | TGI (HCT-15 colon): > 100 µM | TGI (DU-145 prostate): > 100 µM | TGI (HT29 colon): > 100 µM | TGI (KM12 colon): 91.7 µM | TGI (MDA-MB-231 breast): > 100 µM | TGI (MDA-MB-435): > 100 µM | TGI (CAKI-1 renal): > 100 µM | TGI (BT-549 breast): > 100 µM | TGI (UACC-62 melanoma): > 100 µM | TGI (UACC-257 melanoma): > 100 µM | TGI (SR leukemia): 46.4 µM | TGI (RXF 393 renal): 37.3 µM | TGI (NCI-H226 lung): > 100 µM | TGI (A549 NSCLC): > 100 µM | TGI (OVCAR-4 ovarian): > 100 µM | TGI (NCI-H460 lung): > 100 µM | TGI (MALME-3M melanoma): 69.4 µM | TGI (OVCAR-8 ovarian): > 100 µM | TGI (UO-31 renal): > 100 µM
